Data as given in patent US20260070945A1, “MACROCYCLIC IMMUNOMODULATORS” (Bristol-Myers Squibb Company, priority 2022, published 2026).
pIC50: −log10 of the molar value. *1 amine or outer side, *2 acyl side, *3 side chain or, on linkers, in order; H or OH if unused. Where a SMILES comes first, the peptide text is derived from it. Bridges are numbered along the chain shown (N, C = ends). [ ]: non-standard residue; d: D form. The star is where a group is joined. ξ: configuration not given here. Phe(4-CONH2) = NC(=O)c1ccc(C[C@H](N)C(=O)O)cc1; Phe(4-COOH) = N[C@@H](Cc1ccc(C(=O)O)cc1)C(=O)O; Bip = N[C@@H](Cc1ccc(-c2ccccc2)cc1)C(=O)O; Phe(3-Me) = Cc1cccc(C[C@H](N)C(=O)O)c1; NMeAEEA = CN(CCOCCOCC(=O)[*:2])[*:1]; Cyclopropanecarbonyl = O=C(C1CC1)*; Val(3-OH) = CC(C)(O)[C@H](N)C(=O)O; hArg = N=C(N)NCCCC[C@H](N)C(=O)O; 4Pal = N[C@@H](Cc1ccncc1)C(=O)O; Cha = N[C@@H](CC1CCCCC1)C(=O)O; Cit = NC(=O)NCCC[C@H](N)C(=O)O; Ile(3ξ) = CCC(C)[C@H](N)C(=O)O; Thr(3ξ) = CC(O)[C@H](N)C(=O)O; Carboxymethyl = O=C(O)C*; NMeA = CN[C@@H](C)C(=O)O; Orn = NCCC[C@H](N)C(=O)O; Aun = NCCCCCCCCCCC(=O)O; Dab = NCC[C@H](N)C(=O)O; Dap = NC[C@H](N)C(=O)O; AEEA = NCCOCCOCC(=O)O

Target: T1, PD-1/PD-L1 interaction (PE-labeled human PD-L1-Ig binding to Jurkat cell line over-expressing human PD-1) (Homo sapiens, UniProt Q15116)
T1 construct: expressed in transfected cells; host or cells: Jurkat
T1 sequence (Q15116 25-288): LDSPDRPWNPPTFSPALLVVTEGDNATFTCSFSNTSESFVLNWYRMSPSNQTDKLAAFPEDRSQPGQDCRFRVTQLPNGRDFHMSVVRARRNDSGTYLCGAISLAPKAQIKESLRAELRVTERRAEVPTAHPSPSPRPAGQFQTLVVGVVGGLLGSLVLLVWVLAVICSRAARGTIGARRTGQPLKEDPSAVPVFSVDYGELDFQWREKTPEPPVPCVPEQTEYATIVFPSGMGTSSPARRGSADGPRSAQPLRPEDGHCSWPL
Experiment: Jurkat-PD-1 Cell Binding High-Content Screening Assay (CBA)
Settings: Jurkat-hPD-1 cells, PE-labeled PD-L1-Ig 20 nM final; read-out: Jurkat HPD1 PDL1 IC50
Procedure, shortened: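 Cells 8×10^3/well, DMEM + 10% FCS; cpd 2 h, 37 °C; PE–PD-L1-Ig 20 nM final, 1 h; PFA fix + Hoechst 33342, 3× dPBS wash; high-content imager.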

pIC50 | SMILES
7.37 | Cc1cccc(C[C@@H]2NC(=O)[C@H](CC(=O)O)NC(=O)[C@H](Cc3ccc(OCC(=O)O)cc3)NC(=O)[C@H](CN)NC(=O)CSC[C@@H](C(=O)NCC(=O)N[C@@H](CC(=O)O)C(=O)NCCCCCCCCCCC(=O)O)NC(=O)[C@H](CO)NC(=O)[C@H](C(C)C)NC(=O)[C@H](CC(C)C)NC(=O)[C@H](CC(N)=O)NC(=O)[C@@H](CC(C)C)NC(=O)[C@H](C)N(C)C(=O)[C@H](C(C)C)NC(=O)[C@H](Cc3ccc(-c4ccccc4)cc3)NC(=O)[C@H](CC(C)C)NC2=O)c1 [Example 1061] ({CH2CO}-[Dap]Y(Carboxymethyl)D[Phe(3-Me)]L[Bip]V[NMeA][dL]NLVSCGD[Aun]-OH; thioether N-14)
7.84 | CC(=O)NCCCC[C@@H]1NC(=O)[C@H](Cc2ccc(-c3ccccc3)cc2)NC(=O)[C@H](C(C)C)NC(=O)[C@H](Cc2cccc(C)c2)NC(=O)[C@H](CC(=O)O)NC(=O)[C@H](Cc2ccc(OCC(=O)O)cc2)NC(=O)[C@H](CCCNC(=N)N)NC(=O)CSC[C@@H](C(=O)N[C@@H](CCN)C(=O)NCCCCCCCCCCC(=O)O)NC(=O)[C@H](C(C)O)NC(=O)[C@H](C(C)C)NC(=O)[C@H](CC2CCCCC2)NC(=O)[C@H](CCN)NC(=O)[C@@H](CC(C)C)NC(=O)[C@H](C)N(C)C1=O (stereo partly drawn) [Example 2380] ({CH2CO}-RY(Carboxymethyl)D[Phe(3-Me)]V[Bip]K(Ac)[NMeA][dL][Dab][Cha]V[Thr(3ξ)]C[Dab][Aun]-OH; thioether N-14)
7.18 | Cc1cccc(C[C@@H]2NC(=O)[C@H](CC(=O)O)NC(=O)[C@H](Cc3ccc(OCC(=O)O)cc3)NC(=O)[C@H](C(C)O)NC(=O)CSC[C@@H](C(=O)N(C)CCOCCOCC(=O)NCCCCCCCCCCC(=O)O)NC(=O)[C@H](CCC(N)=O)NC(=O)[C@H](C(C)C)NC(=O)[C@H](CC3CCCCC3)NC(=O)[C@H](CCN)NC(=O)[C@@H](CC(C)C)NC(=O)[C@H](C)N(C)C(=O)[C@H](C(C)C)NC(=O)[C@H](Cc3ccc(-c4ccccc4)cc3)NC(=O)[C@H](C(C)C)NC2=O)c1 (stereo partly drawn) [Example 2357] ({CH2CO}-[Thr(3ξ)]Y(Carboxymethyl)D[Phe(3-Me)]V[Bip]V[NMeA][dL][Dab][Cha]VQC[NMeAEEA][Aun]-OH; thioether N-14)
7.74 | CC[C@H](C)[C@@H]1NC(=O)[C@H](Cc2ccc(-c3ccccc3)cc2)NC(=O)[C@H](CC(C)C)NC(=O)[C@H](Cc2c[nH]c3ccccc23)NC(=O)[C@H](CC(=O)O)NC(=O)[C@H](Cc2ccc(C(=O)O)cc2)NC(=O)[C@H](Cc2ccc(OCC(=O)O)cc2)NC(=O)CSC[C@@H](C(=O)N[C@@H](CCCN)C(=O)NCCCCCCCCCCC(=O)O)NC(=O)[C@H](CO)NC(=O)[C@H](C(C)C)NC(=O)[C@H](CC2CCCCC2)NC(=O)[C@H](CCN)NC(=O)[C@@H](CC(C)C)NC(=O)[C@H](C)N(C)C1=O [Example 1072] ({CH2CO}-Y(Carboxymethyl)[Phe(4-COOH)]DWL[Bip]I[NMeA][dL][Dab][Cha]VSC[Orn][Aun]-OH; thioether N-14)
7.71 | CC(C)C[C@@H]1NC(=O)[C@H](Cc2c[nH]c3ccccc23)NC(=O)[C@H](CC(=O)O)NC(=O)[C@H](Cc2ccc(C(=O)O)cc2)NC(=O)[C@H](Cc2ccc(OCC(=O)O)cc2)NC(=O)CSC[C@@H](C(=O)N[C@@H](CCC(=O)O)C(=O)NCC(=O)NCCCCCCCCCCC(=O)O)NC(=O)[C@H](CO)NC(=O)[C@H](C(C)C)NC(=O)[C@H](CC2CCCCC2)NC(=O)[C@H](CCN)NC(=O)[C@@H](CC(C)C)NC(=O)[C@H](C)N(C)C(=O)[C@H](C(C)C)NC(=O)[C@H](Cc2ccc(-c3ccccc3)cc2)NC1=O [Example 1035] ({CH2CO}-Y(Carboxymethyl)[Phe(4-COOH)]DWL[Bip]V[NMeA][dL][Dab][Cha]VSCEG[Aun]-OH; thioether N-14)
7.05 | CCC(C)[C@@H]1NC(=O)[C@H](Cc2ccc(-c3ccccc3)cc2)NC(=O)[C@H](Cc2ccc(OCC(=O)O)cc2)NC(=O)[C@H](Cc2cccc(C)c2)NC(=O)[C@H](CC(=O)O)NC(=O)[C@H](Cc2ccc(C(=O)O)cc2)NC(=O)[C@H](Cc2ccncc2)NC(=O)CSC[C@@H](C(=O)N[C@@H](CCN)C(=O)NCCOCCOCC(=O)NCCCCCCCCCCC(=O)O)NC(=O)[C@H](CCCN)NC(=O)[C@H](C(C)C)NC(=O)[C@H](CC2CCCCC2)NC(=O)[C@H](CCN)NC(=O)[C@@H](CC(C)C)NC(=O)[C@H](C)N(C)C1=O (stereo partly drawn) [Example 1407] ({CH2CO}-[4Pal][Phe(4-COOH)]D[Phe(3-Me)]Y(Carboxymethyl)[Bip][Ile(3ξ)][NMeA][dL][Dab][Cha]V[Orn]C[Dab][AEEA][Aun]-OH; thioether N-14)
7.96 | Cc1cccc(C[C@@H]2NC(=O)[C@H](CC(=O)O)NC(=O)[C@H](Cc3ccc(OCC(=O)O)cc3)NC(=O)[C@H](CCCNC(=O)C3CC3)NC(=O)CSC[C@@H](C(=O)N[C@@H](CCN)C(=O)NCCCCCCCCCCC(=O)O)NC(=O)[C@H](C(C)O)NC(=O)[C@H](C(C)C)NC(=O)[C@H](CC3CCCCC3)NC(=O)[C@H](CCN)NC(=O)[C@@H](CC(C)C)NC(=O)[C@H](C)N(C)C(=O)[C@H](CCCNC(N)=O)NC(=O)[C@H](Cc3ccc(-c4ccccc4)cc3)NC(=O)[C@H](Cc3ccc(O)cc3)NC2=O)c1 (stereo partly drawn) [Example 2400] ({CH2CO}-[Orn](Cyclopropanecarbonyl)Y(Carboxymethyl)D[Phe(3-Me)]Y[Bip][Cit][NMeA][dL][Dab][Cha]V[Thr(3ξ)]C[Dab][Aun]-OH; thioether N-14)
7.08 | CCC(C)[C@@H]1NC(=O)[C@H](Cc2ccc(-c3ccccc3)cc2)NC(=O)[C@H](CC(C)C)NC(=O)[C@H](Cc2c[nH]c3ccccc23)NC(=O)[C@H](CC(=O)O)NC(=O)[C@H](Cc2ccc(OCC(=O)O)cc2)NC(=O)[C@H](CCCCNC(=N)N)NC(=O)CSC[C@@H](C(=O)N[C@@H](CCN)C(=O)NCCOCCOCC(=O)NCCCCCCCCCCC(=O)O)NC(=O)[C@H](CCCCN)NC(=O)[C@H](C(C)C)NC(=O)[C@H](CC2CCCCC2)NC(=O)[C@H](CCN)NC(=O)[C@H]2CCCN2C(=O)[C@H](C)N(C)C1=O (stereo partly drawn) [Example 2206] ({CH2CO}-[hArg]Y(Carboxymethyl)DWL[Bip][Ile(3ξ)][NMeA][dP][Dab][Cha]VKC[Dab][AEEA][Aun]-OH; thioether N-14)
7.74 | CC[C@H](C)[C@@H]1NC(=O)[C@H](Cc2ccc(-c3ccccc3)cc2)NC(=O)[C@H](CC(C)C)NC(=O)[C@H](Cc2c[nH]c3ccccc23)NC(=O)[C@H](CC(=O)O)NC(=O)[C@H](Cc2ccc(C(=O)O)cc2)NC(=O)[C@H](Cc2ccc(OCC(=O)O)cc2)NC(=O)CSC[C@@H](C(=O)N[C@@H](CCN)C(=O)NCCOCCOCC(=O)NCCCCCCCCCCC(=O)O)NC(=O)[C@H](CO)NC(=O)[C@H](C(C)C)NC(=O)[C@H](CC2CCCCC2)NC(=O)[C@H](CCN)NC(=O)[C@@H](CC(C)C)NC(=O)[C@H](C)N(C)C1=O [Example 1077] ({CH2CO}-Y(Carboxymethyl)[Phe(4-COOH)]DWL[Bip]I[NMeA][dL][Dab][Cha]VSC[Dab][AEEA][Aun]-OH; thioether N-14)
8.07 | CC(C)C[C@@H]1NC(=O)[C@H](Cc2c[nH]c3ccccc23)NC(=O)[C@H](CC(=O)O)NC(=O)[C@H](Cc2ccncc2)NC(=O)[C@H](Cc2ccc(OCC(=O)O)cc2)NC(=O)CSC[C@@H](C(=O)NCC(=O)NCCOCCOCC(=O)N[C@@H](CCN)C(=O)NCCCCCCCCCCC(=O)O)NC(=O)[C@H](CCCNC(N)=O)NC(=O)[C@H](C(C)C)NC(=O)[C@H](CC2CCCCC2)NC(=O)[C@H](CCN)NC(=O)[C@@H](CC(C)C)NC(=O)[C@H](C)N(C)C(=O)[C@H](C(C)C)NC(=O)[C@H](Cc2ccc(-c3ccccc3)cc2)NC1=O [Example 2170] ({CH2CO}-Y(Carboxymethyl)[4Pal]DWL[Bip]V[NMeA][dL][Dab][Cha]V[Cit]CG[AEEA][Dab][Aun]-OH; thioether N-14)

Same assay, conditions: PE-labeled PD-L1-Ig 20 nM final, Jurkat-hPD-1 cells; read-out: Jurkat HPD1 PDL1 IC50

pIC50 | SMILES
8.64 | CC(=O)NCCCC[C@@H]1NC(=O)[C@H](C(C)(C)O)NC(=O)[C@H](CC2CCCCC2)NC(=O)[C@H](CCN)NC(=O)[C@@H](CC(C)C)NC(=O)[C@H](C)N(C)C(=O)[C@H](CCC(=O)O)NC(=O)[C@H](Cc2ccc(-c3ccccc3)cc2)NC(=O)[C@H](Cc2ccc(C(N)=O)cc2)NC(=O)[C@H](Cc2cccc(C)c2)NC(=O)[C@H](CC(=O)O)NC(=O)[C@H](Cc2ccc(C(=O)O)cc2)NC(=O)[C@H](Cc2ccc(OCC(=O)O)cc2)NC(=O)CSC[C@@H](C(=O)N[C@@H](CCN)C(=O)NCCOCCOCC(=O)NCCOCCOCC(=O)NCCCCCCCCCCC(=O)O)NC1=O [Example 2533] ({CH2CO}-Y(Carboxymethyl)[Phe(4-COOH)]D[Phe(3-Me)][Phe(4-CONH2)][Bip]E[NMeA][dL][Dab][Cha][Val(3-OH)]K(Ac)C[Dab][AEEA][AEEA][Aun]-OH; thioether N-14)
7.59 | CCC(C)[C@@H]1NC(=O)[C@H](Cc2ccc(-c3ccccc3)cc2)NC(=O)[C@H](C(C)C)NC(=O)[C@H](Cc2c[nH]c3ccccc23)NC(=O)[C@H](CC(=O)O)NC(=O)[C@H](Cc2ccc(C(=O)O)cc2)NC(=O)[C@H](Cc2ccc(OCC(=O)O)cc2)NC(=O)CSC[C@@H](C(=O)N[C@@H](CCN)C(=O)NCCOCCOCC(=O)NCCCCCCCCCCC(=O)O)NC(=O)[C@H](C(C)O)NC(=O)[C@H](C(C)(C)O)NC(=O)[C@H](CC2CCCCC2)NC(=O)[C@H](Cc2cnc[nH]2)NC(=O)[C@@H](CC(C)C)NC(=O)[C@H](C)N(C)C1=O (stereo partly drawn) [Example 2522] ({CH2CO}-Y(Carboxymethyl)[Phe(4-COOH)]DWV[Bip][Ile(3ξ)][NMeA][dL]H[Cha][Val(3-OH)][Thr(3ξ)]C[Dab][AEEA][Aun]-OH; thioether N-14)
